Measured values published in patent publication US8299040B2, “Methods for treating cancer targeting transglutaminase” (Board of Regents, The University of Texas System, priority 2006, dated 2012).
Entries after “also recorded” stand apart in the source; their conditions may differ.

Assays:
[1] = system: NF-κB; assay: NF-κB activation by EMSA, Panc28 cells; format: cell-based, human; settings: for effect on A23187-induced activation of NF-κB: Panc28
Protocol: (§1) To assess NF-κB activation, electrophoretic mobility shift assay (EMSA) was performed as described previously. Briefly, nuclear extracts prepared from cells (1×10^6/ml) were incubated with a ^32P end-labeled 45-mer double-stranded NF-κB oligonucleotide (15 μg of protein with 16 fmol of DNA) from the human immunodeficiency virus long terminal repeat, 5′-[…] […] CGCTG […] […]-3′ (boldface indicates NF-κB binding sites) (SEQ ID NO:17), for 30 minutes at 37° C., and the DNA-protein complex formed was separated from free oligonucleotide on 6.6% native polyacrylamide gels. A double-stranded mutated oligonucleotide, 5′-[…] […] CGCTG […] […]-3′ (SEQ ID NO:18), was used to examine the specificity of binding of NF-κB to the DNA. The specificity of binding was also examined using competition with the unlabeled and mutated oligonucleotides. For supershift assays, nuclear extracts were incubated with antibodies against either the p50 or the p65 subunit of NF-κB for 30 minutes at 37° C. before the complex was analyzed using EMSA.

[2] = system: Panc-28 cells; assay: Gemcitabine cytotoxicity, MTS assay, Panc-28; format: cell-based; settings: Homo sapiens, 72 hours
Protocol: (§2) The number of viable cells remaining after the appropriate treatment was determined by measuring their ability to reduce 3-(4,5-dimethylthiazol-2-yl)-5-(3-carboxymethoxyphenyl)-2H-tetrazolium (MTS) into a soluble formazan in accordance with the manufacturer's instructions. Logarithmically growing cells were plated at 2×10^3 cells per well in 96-well plates and allowed to adhere overnight. […] Each experiment was repeated three times in triplicate. […] Under identical conditions, the cells were trypsinized, and the cell viability was determined with a trypan blue exclusion test to confirm the MTS results.

[3] = system: MiaPaCa-2 cells; assay: Gemcitabine cytotoxicity, MTS assay, MiaPaCa-2; format: cell-based; settings: Homo sapiens, MIA PaCa-2, 72 hours
Protocol: as §2

[4] = system: BxPC-3 cells; assay: Gemcitabine cytotoxicity, MTS assay, BxPC-3; format: cell-based; settings: Homo sapiens
Protocol: as §2

[5] = system: Panc-28 tumors; assay: Orthotopic Panc-28 PDAC tumor model: tumor growth and metastasis; format: in vivo, nude (nu/nu) mice; settings: vs control siRNA group, end of treatment
From the text: Panc-28 cells were stably transduced with the firefly luciferase gene as described previously (23). Luciferase-infected Panc-28 cells were harvested from subconfluent cultures after brief exposure to 0.25% trypsin and 0.2% EDTA. Trypsinization was stopped with the medium containing 10% fetal bovine serum. The cells were washed once in serum-free medium and resuspended in PBS. Single cell suspensions with >90% cell viability were used for implantation into the mice. Animals were anesthetized using intraperitoneal injection of 200 μl ketamine (100 mg/kg) and xylazine (5-10 mg/kg). […] The incision was closed in a single layer using sterile surgical Autoclips (Braintree Scientific, Braintree, Mass.), antibacterial mycotic cream was applied to the wound and the animal was placed on a heating pad to maintain body temperature and closely monitored until conscious.
Tumor growth in the mice after tumor-cell implantation was monitored weekly using a noninvasive bioimaging technique. […] Ten minutes after injection, each mouse was placed in the right lateral decubitus position, and bioluminescence was measured using a cryogenically cooled IVIS imaging system coupled with a data acquisition computer running LivingImage software (Xenogen Corp., Alameda, Calif.). […] The signal intensity was quantified as the sum of all detected photons within the region of interest per second per cm^2 per steridian. […]

[6] = system: VEGF, pAkt (ser473); assay: VEGF and pAkt expression in Panc-28 tumors; design: species or system nude mice; settings: mouse, in vivo
Protocol: Pancreatic tumor tissue samples obtained from control and experimental mice were minced and incubated on ice for 30 min in 0.5 ml of ice-cold lysate buffer (20 mmol/L Tris-HCl, pH 7.4, containing 10% NP-40, 5 mol/L NaCl, 1 mol/L HEPES, 0.5 mol/L EDTA, 0.1 mol/L phenylmethylsulfonyl fluoride, 0.2 mol/L sodium orthovanadate, 1 mol/L NaF, 2 μg/ml aprotinin, and 2 μg/ml leupeptin). The minced tissue was homogenized using a Dounce homogenizer and centrifuged at 16,000×g at 4° C. for 10 min. Fifty micrograms of total protein from each sample was then fractionated using sodium dodecyl sulfate-polyacrylamide gel, electrotransferred onto nitrocellulose membranes, blotted with appropriate antibodies, and antigen antibody reaction detected using enhanced chemiluminescence (Amersham Pharmacia Biotech, Piscataway, N.J.). […] The protein bands obtained were quantified using the AlphaEase FC (Fluor Chem 8900) software program (Alpha Innotech, San Leandro, Calif.).
Tissue microarray slides constructed using 65 formalin-fixed patient tumor samples and 9 normal pancreatic tissue samples were used for this study. […] TG2 protein expression in these tumor samples and xenograft tumors from siRNA treated mice was evaluated immunohistochemically using the Vectastatin Elite ABC immunostaining kit (Vector Laboratories, Burlingame, Calif.) as described previously (12). […]

[7] = system: Panc-28 tumors; assay: Ki-67 proliferation staining of Panc-28 tumors; design: species or system nude mice; settings: mouse, in vivo
From the text: Ki-67 staining was used to evaluate the proliferation index of in vivo growing xenografts and expressed as the number of Ki-67^+ cells±standard error (SE) as determined by counting 10 random microscopic fields for three different tumor samples per treatment group.

[8] = system: Panc-28 tumors; assay: Microvessel density (CD31) in Panc-28 tumors; format: in vivo, nude mice; settings: CD31 staining
From the text: A rat anti-mouse CD31 monoclonal antibody was used to determine the microvessel density in xenografts. The CD31 stained slides were observed under a Leica DM4000B fluorescence microscope (Leica Microsystems Inc, Bannockburn, Ill.) equipped with SPOT-RTKE digital camera (Diagnostic instruments, Sterling Heights, Mich.) and the images were acquired and stored using SPOT advanced software (Diagnostic instruments, Sterling Heights, Mich.). The stored images were processed using NIH ImageJ software. The vessel density in each image was estimated by setting a minimum threshold of 4 pixel^2. Setting a minimum threshold enables to avoid the background non-specific staining and to eliminate the fluorescence signal from single endothelial cell. Results were expressed as the mean number of vessels±SE per high power field (HPF, 100× magnification). A total of 20 random HPFs were examined and counted in four different tumor samples from each treatment group.

[9] = system: Panc-28 tumors; assay: TUNNEL assay of apoptosis in Panc-28 tumors; format: in vivo, nude mice
Protocol: Terminal deoxynucleotidyl transferase mediated […] nick end labeling (TUNNEL) assay (Roche Molecular Biochemicals, Mannhein, Germany) of frozen sections to detect apoptotic cells was performed according to the manufacturer's protocol. The apoptotic fluorescence-positive cells were counted under a microscope and expressed as the percentage of total cells±SE. Ten fields in three tumors per treatment group were examined.

[10] = system: NF-κB; assay: NF-κB-dependent SEAP reporter gene assay, MCF-7/WT cells; format: cell-based, human
Protocol: (§3) NF-κB dependent reporter gene transcription was analyzed using secretory alkaline phosphatase (SEAP) assay as described previously. Briefly, Panc28 and MCF-7 cells (5×10^5 cells/well in a six-well plate) were transiently transfected by the calcium phosphate method in a 1 ml medium containing 0.5 μg of NF-κB promoter DNA, linked to the heat-stable SEAP gene or with the control plasmid pCMV-FLAG1 DNA. Transfected cells were either left untreated or treated with 1 μM A23187 (Sigma-Aldrich), 1 mM BPA, or 1 nM tumor necrosis factor (TNF)-α (Genentech, South San Francisco, Calif.). Twenty-four hours after treatment, the conditioned medium was removed and assayed for SEAP activity according to the manufacturer's instructions (Clontech Laboratories, Mountain View, Calif.) using an automated microplate reader (PerkinElmer, Wellesley, Mass.). In some experiments cells were co-transfected with dominant-negative construct of IκBα along with NF-κB reporter gene.

[11] = system: NF-κB; assay: NF-κB-dependent SEAP reporter gene assay, Panc28 cells; format: cell-based, human
Protocol: as §3

[12] = system: NF-κB; assay: NF-κB activation by EMSA, BxPc3 cells; format: cell-based, human; settings: 1 μM or 2 μM, 24 hours
Protocol: as §1

[13] = system: NF-κB; assay: NF-κB activation by EMSA, MCF-7 cells; format: cell-based, human; settings: MCF-7 cells (lack TG2)
Protocol: as §1

CN(C)c1cccc2c(S(=O)(=O)NCCCCCN)cccc12 [MDC, monodansylcadaverine]
inhibition at 50 µM ([1]; Homo sapiens, Panc28, 50 μM, 24 hours): ~60%
effect on A23187-induced activation of NF-κB [1]: blocked A23187-induced activation

Nc1ccn([C@@H]2O[C@H](CO)[C@@H](O)C2(F)F)c(=O)n1 [gemcitabine]
IC50 [2]: 1000 nM
IC50 [3]: 100 nM
IC50 ([4]; BxPC-3 cells (TG2-deficient), 72 hours): 10 nM
IC50 ([4]; BxPC-3 cells infected with TG2wt adenoviral construct, data not shown): 100 nM
metastasis score [5]: completely ineffective in inhibiting metastasis; also recorded: no decreases in the metastasis score
pAkt (serine 473) in tumors [6]: no significant changes in NF-κB activity or pAkt levels
Ki-67 staining [7]: high levels of Ki-67 staining
mean blood vessel / microvascular density [8]: significant decrease in the mean blood vessel density
apoptotic cells in tumors [9]: significant increases in the numbers of apoptotic cells

TNF-α
SEAP reporter expression ([10]; TNF 1 nM, fold over non-transfected control): 14 fold

NCCCCCNC(=O)CCCC[C@@H]1SC[C@@H]2NC(=O)N[C@@H]21 [BPA, 5-(biotinamido) pentylamine]
inhibition at 1000 µM ([1]; Homo sapiens, Panc28, 1 mM for 24 hours, read-out: inhibition of constitutive activation of NF-κB): ~70%
effect on A23187-induced activation of NF-κB [1]: failed to further augment A23187-induced activation of NF-κB
inhibition of TNF-α-induced SEAP expression ([10]; BPA 1 mM): not by BPA
inhibition of SEAP expression ([11]; Panc28, P<0.002): significantly inhibited

CNc1ccc2oc(C[C@H]3O[C@@]4(CC[C@H]3C)O[C@H]([C@H](C)C(=O)c3ccc[nH]3)[C@H](C)C[C@H]4C)nc2c1C(=O)O [A23187]
basal TG2 activity and constitutive NF-κB activation ([1]; Panc28 cells): could be further induced
NF-κB activation [12]: strong activation of NF-κB
NF-κB activation [13]: failed to show an increase in NF-κB activation
A23187-induced SEAP activity [10]: No basal or A23187-induced activity of SEAP
SEAP expression in response to A23187 ([11]; Panc28, 1 µM for 24 hours): did not increase further
